Laboratory results taken from US12679835B2, “Benzothiazinone derivative substituted with trifluoromethyl at 6-position, and preparation method therefor and use thereof” (SOOCHOW UNIVERSITY, priority 2021, dated 2026).
≈ marks a conversion by molar mass, not a printed value.

Assays:
in vitro = conditions: human, microsomes, pH 7.4
[1] = test system: Mycobacterium tuberculosis (H37 Rv, standard tuberculosis strain); test: Anti-Mycobacterium tuberculosis activity, microwell Alamar Blue fluorometric method (MIC); assay type: cell-based; conditions: Mycobacterium tuberculosis H37Rv, 37° C., 8 days + 2 days, read-out: MIC (minimal inhibitory concentration)
physchem = conditions: pH 7.4, aqueous buffer, kinetic from dmso stock
Tuberculosis = conditions: background statement, existing clinical first-line drug; cited from earlier work

Row | SMILES | half-life at 1 μM (in vitro) | MIC [1] | solubility at 4 h (physchem) | MIC (Tuberculosis)
1 | CN(Cc1cn(-c2ccccc2)nn1)c1nc(=O)c2cc(S(C)(=O)=O)cc([N+](=O)[O-])c2s1 [Control 2] | 53.7 min | 0.022 µg/mL | – | –
2 | CN(Cc1nnc(-c2ccc(F)cc2)s1)c1nc(=O)c2cc(S(C)(=O)=O)cc([N+](=O)[O-])c2s1 [Control 4] | 13.2 min | 0.024 µg/mL | – | –
3 | CN(Cc1nnc(-c2ccc(F)cc2)s1)c1nc(=O)c2cc(C(F)(F)F)cc([N+](=O)[O-])c2s1 [Example 4] | 34.3 min | 0.016 µg/mL | – | –
4 | O=c1nc(N2CCN(CC3CCCCC3)CC2)sc2c([N+](=O)[O-])cc(C(F)(F)F)cc12 [PBTZ169] | 38 min | 0.00183 µg/mL | < 0.01 µg/mL | –
5 | CN(Cc1coc(-c2ccccc2)n1)c1nc(=O)c2cc(S(C)(=O)=O)cc([N+](=O)[O-])c2s1 [Control 5] | 21 min | 0.015 µg/mL | – | –
6 | CN(Cc1cn(-c2ccccc2)nn1)c1nc(=O)c2cc(C(F)(F)F)cc([N+](=O)[O-])c2s1 [Example 2, 2-(1-phenyl ((1-1H-1,2,3-triazole-4-yl)methyl) (methyl)amino)-8-nitro-6-(trifluoromethyl)-4H-benzo [e] [1,3] Thiazin-4-ketone] | 100 min | 0.004 µg/mL | 0.13 µg/mL (≈ 0.281 µM) | –
7 | CN(Cc1nnc(-c2ccccc2)o1)c1nc(=O)c2cc(C(F)(F)F)cc([N+](=O)[O-])c2s1 [Example 1, 2-(methyl ((5-phenyl-1,3,4-oxadiazol-2-yl)methyl)amino)-8-nitro-6-(trifluoromethyl)-4H-benzo [e] [1,3] Thiazin-4-ketone] | 68.2 min | 0.003 µg/mL | 0.15 µg/mL (≈ 0.324 µM) | –
8 | CN(Cc1coc(-c2ccccc2)n1)c1nc(=O)c2cc(C(F)(F)F)cc([N+](=O)[O-])c2s1 [Example 5, 2-(methyl((2-phenyloxazole-4-yl)methyl)amino)-8-nitro-6-(trifluoromethyl)-4H-benzo [e] [1,3] Thiazin-4-ketone] | 33.6 min | 0.003 µg/mL | 0.11 µg/mL (≈ 0.238 µM) | –
9 | NNC(=O)c1ccncc1 [isoniazid INH, isoniazid] | – | 0.028 µg/mL | – | 0.5 µM (≈ 0.0686 µg/mL)
10 | CN(Cc1nnc(-c2ccccc2)o1)c1nc(=O)c2cc(S(C)(=O)=O)cc([N+](=O)[O-])c2s1 [Control 1] | 45.9 min | 0.014 µg/mL | – | –
11 | CN(Cc1cn(-c2ccc(F)cc2)nn1)c1nc(=O)c2cc(S(C)(=O)=O)cc([N+](=O)[O-])c2s1 [Control 3] | 27.6 min | 0.015 µg/mL | – | –
12 | CN(Cc1cn(-c2ccc(F)cc2)nn1)c1nc(=O)c2cc(C(F)(F)F)cc([N+](=O)[O-])c2s1 [Example 3] | 116 min | 0.004 µg/mL | 0.12 µg/mL (≈ 0.25 µM) | –
